Patent US8741836B2, “Polypeptides” (Novo Nordisk A/S, priority 2011, dated 2014)
Where two headings read alike, the source gives them in different places. Starred links: 1 amine or outer side, 2 acyl side, 3 side chain; linkers in the order of their positions; H or OH if unused. Positions of bridges follow the written chain, without caps; N, C: chain ends. Residues, ends and D or L forms follow the SMILES beside them. Groups on a side chain read outwards from the residue. *: point of attachment. C20 diacid = O=C(O)CCCCCCCCCCCCCCCCCCC(=O)*; C18 diacid = O=C(O)CCCCCCCCCCCCCCCCC(=O)*; γGlu = O=C(O)[C@H](CCC(=O)[*:2])N[*:1]; AEEA = NCCOCCOCC(=O)O

Assays:
[1] = target: T1, human amylin 3(a) receptor (human calcitonin receptor + RAMP-3) (Homo sapiens, UniProt O60896+P30988); assay: Assay (II)a functional assay, human amylin receptor (CRE luciferase reporter in BHK cells); assay type: cell-based
T1 construct: expressed in transfected cells; CRE-luciferase reporter
T1 sequence (P30988 25-474): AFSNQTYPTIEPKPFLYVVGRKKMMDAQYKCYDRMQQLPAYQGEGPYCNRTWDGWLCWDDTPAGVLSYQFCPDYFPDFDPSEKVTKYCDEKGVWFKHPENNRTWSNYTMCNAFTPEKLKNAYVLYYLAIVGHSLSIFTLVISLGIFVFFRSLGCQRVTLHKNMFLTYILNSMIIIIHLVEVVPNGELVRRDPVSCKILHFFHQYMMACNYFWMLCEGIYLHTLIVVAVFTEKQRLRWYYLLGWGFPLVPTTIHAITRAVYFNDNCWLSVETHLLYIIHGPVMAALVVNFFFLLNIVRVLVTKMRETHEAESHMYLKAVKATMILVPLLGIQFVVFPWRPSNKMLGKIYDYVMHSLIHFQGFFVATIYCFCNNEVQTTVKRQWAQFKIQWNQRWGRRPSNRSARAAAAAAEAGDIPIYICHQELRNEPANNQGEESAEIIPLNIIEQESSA
T1 sequence (O60896 24-148 partner): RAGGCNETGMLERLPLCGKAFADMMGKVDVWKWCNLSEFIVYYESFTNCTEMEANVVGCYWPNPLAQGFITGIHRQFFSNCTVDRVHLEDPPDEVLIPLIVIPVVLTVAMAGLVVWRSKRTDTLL
Text: (§1) 1. Luciferase Assay Outline
(§2) Activation of calcitonin and amylin (coexpression of calcitonin receptor and receptor activity modifying proteins (RAMP)) receptors lead to increased intracellular concentrations of cAMP. Consequently, transcription is activated by promoters containing multiple copies of the cAMP response element (CRE). It is thus possible to measure amylin activity by the use of a CRE luciferase reporter gene introduced into BHK cells also expressing calcitonin or amylin receptors.
(§3) A BHK570 cell line was stably transfected with the human calcitonin receptor and a CRE-responsive luciferase reporter gene. The cell line was further transfected with RAMP-3, using standard methods. This turns the calcitonin receptor into an amylin 3(a) receptor. Methotrexate, Neomycin, and Hygromycin are selection markers for luciferase, the calcitonin receptor, and RAMP-3, respectively.
(§4) To perform activity assays, BHK calcitonin (a) receptor- or amylin 3(a)-receptor/CRE-luc cells were seeded in white 96 well culture plates at a density of about 20.000 cells/well. […] After incubation overnight at 37° C. and 5% CO2, the growth medium was replaced by 50 μl/well assay medium (DMEM (without phenol red), Glutamax™, 10% FBS, and 10 mM Hepes, pH 7.4). Further, 50 μl/well of standard or sample in assay buffer were added. After 3 hours incubation at 37° C. and 5% CO2, the assay medium with standard or sample were removed and replaced by 100 μl/well PBS. Further, 100 μl/well LucLite™ was added. The plates were sealed and incubated at room temperature for 30 minutes. Finally, luminescence was measured on a TopCounter (Packard) in SPC (single photon counting) mode.

[2] = target: T2, human calcitonin receptor (Homo sapiens, UniProt P30988); assay: Assay (II)a functional assay, human calcitonin receptor (CRE luciferase reporter in BHK cells); assay type: cell-based
T2 construct: expressed in transfected cells; CRE-luciferase reporter
T2 sequence (P30988 25-474): T1 sequence (P30988 25-474)
Text: as §1, §2, §3, §4

[3] = Assay (IV) determination of solubility; assay type: physicochemical
Protocol: Assay (IV)—Determination of Solubility
The polypeptide was dissolved in water at −500 nmol/ml and mixed 1:1 with a series of buffers (100 mM glycylglycine pH 3.0, 100 mM glycylglycine pH 4.0, 100 mM glycylglycine pH 5.0, 100 mM bistrispropane pH 6.0, 100 mM bistrispropane pH 6.5, 100 mM bistrispropane pH 7.0, 100 mM bistrispropane pH 7.5, 100 mM bistrispropane pH 8.0). After 18 hours at room temperature the samples were centrifuged and the polypeptide concentration determined by HPLC.

[4] = Table 7, human calcitonin (CTa) receptor
[5] = Table 11, human amylin receptor
[6] = Table 11, human calcitonin receptor, read-out: CTa receptor human EC50

Compound | EC50 ([1]; Table 6, human amylin receptor) [nM] | EC50 [2, 4] [nM] | EC50 [1, 5] [nM] | EC50 [2, 6] [nM] | solubility at 18 h ([3]; bistrispropane buffer, pH 6.5, read-out: Solubility) [µM] | solubility at 18 h ([3]; bistrispropane buffer, pH 7.5, read-out: Solubility) [µM] | solubility at 18 h ([3]; bistrispropane buffer, pH 6.0, read-out: Solubility) [µM] | solubility at 18 h ([3]; bistrispropane buffer, pH 7.0, read-out: Solubility pH 7.0) [µM] | solubility at 18 h ([3]; bistrispropane buffer, pH 8.0, read-out: Solubility) [µM] | solubility at 18 h ([3]; glycylglycine buffer, pH 3.0, read-out: Solubility) [µM] | solubility at 18 h ([3]; glycylglycine buffer, pH 4.0, read-out: Solubility pH 4.0) [µM] | solubility at 18 h ([3]; glycylglycine buffer, pH 5.0, read-out: Solubility) [µM] | solubility at 18 h ([3]; pH 4.0, read-out: Solubility) [µM] | solubility at 18 h ([3]; pH 7.0, read-out: Solubility) [µM] | EC50 [1] [nM] | EC50 ([1]; Table 4) [nM] | EC50 ([1]; Table 7, human amylin receptor) [nM]
CC[C@H](C)[C@H](NC(=O)[C@@H]1CCCN1C(=O)CNC(=O)[C@H](CC(C)C)NC(=O)[C@H](CCC(=O)O)NC(=O)[C@H](CCC(N)=O)NC(=O)[C@@H](NC(=O)[C@H](C)NC(=O)[C@H](CCCNC(=N)N)NC(=O)[C@H](Cc1c[nH]cn1)NC(=O)[C@H](CC(C)C)NC(=O)[C@H](Cc1ccccc1)NC(=O)[C@H](CCC(=O)O)NC(=O)[C@H](C)NC(=O)[C@H](CC(C)C)NC(=O)[C@H](CCCNC(=N)N)NC(=O)[C@H](CCC(N)=O)NC(=O)[C@@H](NC(=O)[C@H](C)NC(=O)[C@@H]1CSSC[C@H](NC(=O)[C@H](Cc2c[nH]cn2)NC(=O)COCCOCCNC(=O)COCCOCCNC(=O)CC[C@H](NC(=O)CCCCCCCCCCCCCCCCCCC(=O)O)C(=O)O)C(=O)N[C@@H](CC(N)=O)C(=O)N[C@@H]([C@@H](C)O)C(=O)N[C@@H](C)C(=O)N[C@@H]([C@@H](C)O)C(=O)N1)[C@@H](C)O)[C@@H](C)O)C(=O)N[C@@H](CC(C)C)C(=O)N1CCC[C@H]1C(=O)N1CCC[C@H]1C(=O)N[C@H](C(=O)N[C@@H](CC(N)=O)C(=O)N[C@H](C(=O)NCC(=O)N[C@@H](CO)C(=O)N[C@@H](CC(N)=O)C(=O)N[C@H](C(=O)N[C@@H](Cc1ccc(O)cc1)C(N)=O)[C@@H](C)O)C(C)C)[C@@H](C)O [Example 23] ({C20 diacid-γGlu-AEEA-AEEA}-HCNTATCATQRLAEFLHRATQELGPILPPTNVGSNTY-NH2; disulfide 2-7) | 0.385 | 0.492 | – | – | – | – | – | – | – | – | – | – | – | – | – | – | –
CC[C@H](C)[C@H](NC(=O)[C@H](CCCCNC(=O)COCCOCCNC(=O)COCCOCCNC(=O)CC[C@H](NC(=O)CCCCCCCCCCCCCCCCC(=O)O)C(=O)O)NC(=O)CNC(=O)[C@H](Cc1ccccc1)NC(=O)[C@H](CC(N)=O)NC(=O)[C@H](CC(N)=O)NC(=O)[C@H](CO)NC(=O)[C@H](CO)NC(=O)[C@H](Cc1c[nH]cn1)NC(=O)[C@@H](NC(=O)[C@H](CC(C)C)NC(=O)[C@H](Cc1ccccc1)NC(=O)[C@H](CCC(=O)O)NC(=O)[C@H](C)NC(=O)[C@H](CC(C)C)NC(=O)[C@H](CCCNC(=N)N)NC(=O)[C@H](CCC(N)=O)NC(=O)[C@@H](NC(=O)[C@H](C)NC(=O)[C@@H]1CSSC[C@H](NC(=O)[C@@H](N)CCCCN)C(=O)N[C@@H](CC(N)=O)C(=O)N[C@@H]([C@@H](C)O)C(=O)N[C@@H](C)C(=O)N[C@@H]([C@@H](C)O)C(=O)N1)[C@@H](C)O)C(C)C)C(=O)N[C@@H](CC(C)C)C(=O)N1CCC[C@H]1C(=O)N1CCC[C@H]1C(=O)N[C@H](C(=O)N[C@@H](CC(N)=O)C(=O)N[C@H](C(=O)NCC(=O)N[C@@H](CO)C(=O)N[C@@H](CC(N)=O)C(=O)N[C@H](C(=O)N[C@@H](Cc1ccc(O)cc1)C(N)=O)[C@@H](C)O)C(C)C)[C@@H](C)O [Example 126] (H-KCNTATCATQRLAEFLVHSSNNFGK([AEEA-AEEA-γGlu-C18 diacid])ILPPTNVGSNTY-NH2; disulfide 2-7 (inferred); N-terminus and C-terminus assumed) | – | – | 0.076 | 0.101 | – | – | – | – | – | – | – | – | – | – | – | – | –
CC(C)C[C@H](NC(=O)[C@H](CCCNC(=N)N)NC(=O)[C@H](CCC(N)=O)NC(=O)[C@@H](NC(=O)[C@H](C)NC(=O)[C@@H]1CSSC[C@H](NC(=O)[C@@H](N)CCCCNC(=O)CC[C@H](NC(=O)CCCCCCCCCCCCCCCCCCC(=O)O)C(=O)O)C(=O)N[C@@H](CC(N)=O)C(=O)N[C@@H]([C@@H](C)O)C(=O)N[C@@H](C)C(=O)N[C@@H]([C@@H](C)O)C(=O)N1)[C@@H](C)O)C(=O)N[C@@H](C)C(=O)N[C@@H](CCC(=O)O)C(=O)N[C@@H](Cc1ccccc1)C(=O)N[C@@H](CC(C)C)C(=O)N[C@@H](Cc1c[nH]cn1)C(=O)N[C@@H](Cc1c[nH]cn1)C(=O)N[C@@H](CO)C(=O)N[C@@H](CO)C(=O)N[C@@H](CCC(N)=O)C(=O)N[C@@H](CC(N)=O)C(=O)N[C@@H](Cc1ccccc1)C(=O)NCC(=O)N[C@@H](C)C(=O)N1CCC[C@H]1C(=O)N[C@@H](CC(C)C)C(=O)N[C@@H](CO)C(=O)N[C@@H](CO)C(=O)N[C@H](C(=O)N[C@@H](CC(N)=O)C(=O)N[C@H](C(=O)NCC(=O)N[C@@H](CO)C(=O)N[C@@H](CC(N)=O)C(=O)N[C@H](C(=O)N1CCC[C@H]1C(N)=O)[C@@H](C)O)C(C)C)[C@@H](C)O [Example 151, N-epsilon1-[(S)-4-Carboxy-4-(19-carboxynonadecanoylamino)butyryl]-[Glu14,His17,Gln21,Ala25,Pro26,Ser28,Ser29,Pro37]-pramlintide] (H-K([γGlu-C20 diacid])CNTATCATQRLAEFLHHSSQNFGAPLSSTNVGSNTP-NH2; disulfide 2-7 (inferred); N-terminus assumed) | 0.209 | 0.0675 | 0.209 | 0.0675 | > 200 | > 200 | > 200 | > 200 | > 200 | > 200 | > 200 | > 200 | >200 | >200 | 0.209 | 0.209 | 0.209
